In PubChem BioAssay (NCI):
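The compound was tested at five concentrations on cells cultured in 96-well plates, with a 48-hour exposure period. Abbreviation: GI50, concentration required for 50% inhibition of growth. At the TGI there is no net growth.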

How the values were obtained:
Test in all cases: DTP human tumour cell line panel, 48 h
[1] = system: SF-295 CNS
[2] = system: RXF 393 renal
[3] = system: SK-MEL-5 melanoma
[4] = system: UACC-62 melanoma
[5] = system: HOP-92 NSCLC
[6] = system: UACC-257 melanoma
[7] = system: EKVX NSCLC
[8] = system: SN12C renal
[9] = system: IGROV1 ovarian
[10] = system: A498 renal
[11] = system: SNB-75 CNS
[12] = system: SR leukemia
[13] = system: HOP-62 NSCLC
[14] = system: SF-268 CNS
[15] = system: OVCAR-5 ovarian
[16] = system: HT29 colon
[17] = system: M14 melanoma
[18] = system: PC-3 prostate
[19] = system: SK-MEL-2 melanoma
[20] = system: DU-145 prostate
[21] = system: ACHN renal
[22] = system: HS 578T breast
[23] = system: TK-10 renal
[24] = system: A549 NSCLC
[25] = system: OVCAR-8 ovarian
[26] = system: OVCAR-3 ovarian
[27] = system: LOX IMVI melanoma
[28] = system: K-562 leukemia
[29] = system: MALME-3M melanoma
[30] = system: HCT-15 colon
[31] = system: U251 CNS
[32] = system: RPMI-8226 leukemia
[33] = system: HL-60(TB) leukemia
[34] = system: KM12 colon
[35] = system: SK-OV-3 ovarian
[36] = system: COLO 205 colon
[37] = system: MCF7 breast
[38] = system: SW-620 colon
[39] = system: MDA-MB-231 breast
[40] = system: NCI-H522 lung
[41] = system: UO-31 renal
[42] = system: NCI-H23 lung
[43] = system: NCI-H460 lung
[44] = system: OVCAR-4 ovarian
[45] = system: HCC-2998 colon
[46] = system: NCI/ADR-RES ovarian
[47] = system: CCRF-CEM leukemia
[48] = system: NCI-H226 lung
[49] = system: CAKI-1 renal
[50] = system: HCT-116 colon
[51] = system: BT-549 breast
[52] = system: MOLT-4 leukemia
[53] = system: T-47D breast
[54] = system: SNB-19 CNS
[55] = system: 786-0 renal
[56] = system: MDA-MB-435
[57] = system: SF-539 CNS
[58] = system: SK-MEL-28 melanoma

## C=C1C(=O)O[C@H]2[C@H]1CC/C(COC(=O)/C=C\C(=O)NCc1ccc(Cn3c(=O)sn(CCCI)c3=O)cc1)=C\CC[C@@]1(C)O[C@@H]21
[1]
  GI50: 2190 nM
  TGI: 8060 nM
[2]
  GI50: 423 nM
  TGI: 1110 nM
[3]
  GI50: 813 nM
  TGI: 1490 nM
[4]
  GI50: 732 nM
  TGI: 1450 nM
[5]
  GI50: 580 nM
  TGI: 1310 nM
[6]
  GI50: 872 nM
  TGI: 1810 nM
[7]
  GI50: 729 nM
  TGI: 1440 nM
[8]
  GI50: 643 nM
  TGI: 1500 nM
[9]
  GI50: 368 nM
  TGI: 1110 nM
[10]
  GI50: 831 nM
  TGI: 1550 nM
[11]
  GI50: 442 nM
  TGI: 1160 nM
[12]
  GI50: 170 nM
  TGI: 7800 nM
[13]
  GI50: 1510 nM
  TGI: 7680 nM
[14]
  GI50: 740 nM
  TGI: 1440 nM
[15]
  GI50: 752 nM
  TGI: 1590 nM
[16]
  GI50: 547 nM
  TGI: 2460 nM
[17]
  GI50: 637 nM
  TGI: 1440 nM
[18]
  GI50: 610 nM
  TGI: 1440 nM
[19]
  GI50: 919 nM
  TGI: 1960 nM
[20]
  GI50: 654 nM
  TGI: 1310 nM
[21]
  GI50: 413 nM
  TGI: 1040 nM
[22]
  GI50: 851 nM
  TGI: 2390 nM
[23]
  GI50: 758 nM
  TGI: 1520 nM
[24]
  GI50: 1050 nM
  TGI: 2960 nM
[25]
  GI50: 771 nM
  TGI: 3410 nM
[26]
  GI50: 281 nM
  TGI: 927 nM
[27]
  GI50: 291 nM
  TGI: 983 nM
[28]
  GI50: 312 nM
  TGI: 13100 nM
[29]
  GI50: 707 nM
  TGI: 1420 nM
[30]
  GI50: 355 nM
  TGI: 1120 nM
[31]
  GI50: 871 nM
  TGI: 1950 nM
[32]
  GI50: 196 nM
  TGI: 1210 nM
[33]
  GI50: 575 nM
  TGI: 2260 nM
[34]
  GI50: 866 nM
  TGI: 1730 nM
[35]
  GI50: 5080 nM
  TGI: 11400 nM
[36]
  GI50: 568 nM
  TGI: 1510 nM
[37]
  GI50: 282 nM
  TGI: 1090 nM
[38]
  GI50: 250 nM
  TGI: 891 nM
[39]
  GI50: 593 nM
  TGI: 1340 nM
[40]
  GI50: 643 nM
  TGI: 1730 nM
[41]
  GI50: 316 nM
  TGI: 1020 nM
[42]
  GI50: 788 nM
  TGI: 1530 nM
[43]
  GI50: 738 nM
  TGI: 1580 nM
[44]
  GI50: 603 nM
  TGI: 1290 nM
[45]
  GI50: 909 nM
  TGI: 1660 nM
[46]
  GI50: 988 nM
  TGI: 3610 nM
[47]
  GI50: 155 nM
  TGI: 1680 nM
[48]
  GI50: 883 nM
  TGI: 2620 nM
[49]
  GI50: 298 nM
  TGI: 999 nM
[50]
  GI50: 193 nM
  TGI: 770 nM
[51]
  GI50: 622 nM
  TGI: 1450 nM
[52]
  GI50: 557 nM
  TGI: 2990 nM
[53]
  GI50: 801 nM
  TGI: 2170 nM
[54]
  GI50: 850 nM
  TGI: 1690 nM
[55]
  GI50: 770 nM
  TGI: 1510 nM
[56]
  GI50: 605 nM
  TGI: 1250 nM
[57]
  GI50: 689 nM
  TGI: 1340 nM
[58]
  GI50: 800 nM
  TGI: 1500 nM
